Measured values: ChEMBL document CHEMBL1629593 (Antimicrob Agents Chemother, 2009)
Activity calls are given as the source filed them. The rule behind the calls is not given here.

How the values were obtained:
[1] = test system: Staphylococcus aureus; assay: fCmin in heterogeneous vancomycin-intermediate Staphylococcus aureus Mu3 infected in vivo pharmacodynamic model at 2500 mg treated every 12 hrs; type: ADME, organism-based
[2] = Ratio of fAUC in […] pharmacodynamic model to MIC for multidrug-resistant Staphylococcus aureus 3286 at 1500 mg treated every 12 hrs; type: functional
[3] = test system: Staphylococcus aureus; assay: Antibacterial activity against heterogeneous vancomycin-intermediate Staphylococcus aureus Mu3 infected in […] pharmacodynamic model at 1000 mg treated every 12 hrs measured after 24 hrs post dose; type: functional
[4] = test system: Staphylococcus aureus; assay: fCmin in heterogeneous vancomycin-intermediate Staphylococcus aureus 1629 infected in vivo pharmacodynamic model at 4000 mg treated every 12 hrs; type: ADME, organism-based
[5] = test system: Staphylococcus aureus; assay: fCmin in multidrug-resistant Staphylococcus aureus 3286 infected in vivo pharmacodynamic model at 1500 mg treated every 12 hrs; type: ADME, organism-based
[6] = Ratio of fAUC in […] pharmacodynamic model to MIC for heterogeneous vancomycin-intermediate Staphylococcus aureus Mu3 at 2250 mg treated every 12 hrs; type: functional
[7] = test system: Staphylococcus aureus; assay: fCmin in heterogeneous vancomycin-intermediate Staphylococcus aureus 1629 infected in vivo pharmacodynamic model at 2000 mg treated every 12 hrs; type: ADME, organism-based
[8] = test system: Staphylococcus aureus; assay: Antibacterial activity against heterogeneous vancomycin-intermediate Staphylococcus aureus Mu3 infected in […] pharmacodynamic model at 2500 mg treated every 12 hrs measured after 24 hrs post dose; type: functional
[9] = Ratio of fAUC in […] pharmacodynamic model to MIC for multidrug-resistant Staphylococcus aureus 3286 at 4000 mg treated every 12 hrs; type: functional
[10] = Ratio of fAUC in […] pharmacodynamic model to MIC for heterogeneous vancomycin-intermediate Staphylococcus aureus 1629 at 750 mg treated every 12 hrs; type: functional
[11] = Ratio of fAUC in […] pharmacodynamic model to MIC for heterogeneous vancomycin-intermediate Staphylococcus aureus Mu3 at 750 mg treated every 12 hrs; type: functional
[12] = test system: Staphylococcus aureus; assay: fCmin in multidrug-resistant Staphylococcus aureus 3286 infected in vivo pharmacodynamic model at 2000 mg treated every 12 hrs; type: ADME, organism-based
[13] = Ratio of fAUC in […] pharmacodynamic model to MIC for heterogeneous vancomycin-intermediate Staphylococcus aureus 1629 at 1000 mg treated every 12 hrs; type: functional
[14] = test system: Staphylococcus aureus; assay: Antibacterial activity against heterogeneous vancomycin-intermediate Staphylococcus aureus Mu3 infected in […] pharmacodynamic model at 1000 mg treated every 12 hrs measured after 48 hrs post dose; type: functional
[15] = test system: Staphylococcus aureus; assay: fCmin in heterogeneous vancomycin-intermediate Staphylococcus aureus Mu3 infected in vivo pharmacodynamic model at 1500 mg treated every 12 hrs; type: ADME, organism-based
[16] = test system: Staphylococcus aureus; assay: Antibacterial activity against heterogeneous vancomycin-intermediate Staphylococcus aureus Mu3 infected in […] pharmacodynamic model at 1500 mg treated every 12 hrs measured after 48 hrs post dose; type: functional
[17] = Ratio of fAUC in […] pharmacodynamic model to MIC for heterogeneous vancomycin-intermediate Staphylococcus aureus Mu3 at 1000 mg treated every 12 hrs; type: functional
[18] = Ratio of fAUC in […] pharmacodynamic model to MIC for heterogeneous vancomycin-intermediate Staphylococcus aureus 1629 at 2000 mg treated every 12 hrs; type: functional
[19] = test system: Staphylococcus aureus; assay: fCmin in heterogeneous vancomycin-intermediate Staphylococcus aureus Mu3 infected in vivo pharmacodynamic model at 5000 mg treated every 12 hrs; type: ADME, organism-based
[20] = Ratio of fAUC in […] pharmacodynamic model to MIC for multidrug-resistant Staphylococcus aureus 3286 at 2000 mg treated every 12 hrs; type: functional
[21] = test system: Staphylococcus aureus; assay: Antibacterial activity against multidrug-resistant Staphylococcus aureus 3286 infected in […] pharmacodynamic model at 4000 mg treated every 12 hrs measured after 72 hrs post dose; type: functional
[22] = Ratio of fAUC in […] pharmacodynamic model to MIC for heterogeneous vancomycin-intermediate Staphylococcus aureus Mu3 at 2500 mg treated every 12 hrs; type: functional
[23] = test system: Staphylococcus aureus; assay: fCmin in heterogeneous vancomycin-intermediate Staphylococcus aureus Mu3 infected in vivo pharmacodynamic model at 700 mg treated every 12 hrs; type: ADME, organism-based
[24] = test system: Staphylococcus aureus; assay: Antibacterial activity against heterogeneous vancomycin-intermediate Staphylococcus aureus Mu3 infected in […] pharmacodynamic model at 2500 mg treated every 12 hrs measured after 48 hrs post dose; type: functional
[25] = Ratio of fAUC in […] pharmacodynamic model to MIC for multidrug-resistant Staphylococcus aureus; type: functional
[26] = Ratio of fAUC in […] pharmacodynamic model to MIC for heterogeneous vancomycin-intermediate Staphylococcus aureus Mu3 at 5000 mg treated every 12 hrs; type: functional
[27] = test system: Staphylococcus aureus; assay: Antibacterial activity against heterogeneous vancomycin-intermediate Staphylococcus aureus 1629 infected in […] pharmacodynamic model at 700 mg treated every 12 hrs measured after 72 hrs post dose; type: functional
[28] = test system: Staphylococcus aureus; assay: Antibacterial activity against multidrug-resistant Staphylococcus aureus 3286 infected in […] pharmacodynamic model at 2000 mg treated every 12 hrs measured after 48 hrs post dose; type: functional
[29] = test system: Staphylococcus aureus; assay: fCmin in multidrug-resistant Staphylococcus aureus 3286 infected […] pharmacodynamic model at 4000 mg treated every 12 hrs; type: ADME, organism-based
[30] = test system: Staphylococcus aureus; assay: fCmin in heterogeneous vancomycin-intermediate Staphylococcus aureus Mu3 infected […] pharmacodynamic model at 1000 mg treated every 12 hrs; type: ADME, organism-based
[31] = Ratio of fAUC in […] pharmacodynamic model to MIC for heterogeneous vancomycin-intermediate Staphylococcus aureus 1629 at 4000 mg treated every 12 hrs; type: functional
[32] = test system: Staphylococcus aureus; assay: fCmin in heterogeneous vancomycin-intermediate Staphylococcus aureus 1629 infected […] pharmacodynamic model at 1000 mg treated every 12 hrs; type: ADME, organism-based
[33] = test system: Staphylococcus aureus; assay: fCmin in multidrug-resistant Staphylococcus aureus 3286 infected […] pharmacodynamic model at 1000 mg treated every 12 hrs; type: ADME, organism-based
[34] = test system: Staphylococcus aureus; assay: fCmin in heterogeneous vancomycin-intermediate Staphylococcus aureus 1629 infected in vivo pharmacodynamic model at 1500 mg treated every 12 hrs; type: ADME, organism-based
[35] = test system: Staphylococcus aureus; assay: fCmin in heterogeneous vancomycin-intermediate Staphylococcus aureus 1629 infected in vivo pharmacodynamic model at 750 mg treated every 12 hrs; type: ADME, organism-based
[36] = test system: Staphylococcus aureus; assay: fCmin in heterogeneous vancomycin-intermediate Staphylococcus aureus Mu3 infected […] pharmacodynamic model at 2000 mg treated every 12 hrs; type: ADME, organism-based
[37] = test system: Staphylococcus aureus; assay: fCmin in heterogeneous vancomycin-intermediate Staphylococcus aureus Mu3 infected in vivo pharmacodynamic model at 2250 mg treated every 12 hrs; type: ADME, organism-based
[38] = test system: Staphylococcus aureus; assay: Antibacterial activity against multidrug-resistant Staphylococcus aureus 3286 infected in in vitro pharmacodynamic model at 1000 to 2000 mg treated every 12 hrs using 10^6 CFU/ml inoculum by time-kill analysis; type: functional, organism-based
[39] = test system: Staphylococcus aureus; assay: fCmin in heterogeneous vancomycin-intermediate Staphylococcus aureus 1629 infected in vivo pharmacodynamic model at 1750 mg treated every 12 hrs; type: ADME, organism-based
[40] = Ratio of fAUC in […] pharmacodynamic model to MIC for heterogeneous vancomycin-intermediate Staphylococcus aureus Mu3 at 2000 mg treated every 12 hrs; type: functional
[41] = Ratio of fAUC in […] pharmacodynamic model to MIC for multidrug-resistant Staphylococcus aureus 3286 at 1000 mg treated every 12 hrs; type: functional

Molecule `CN[C@H](CC(C)C)C(=O)N[C@H]1C(=O)N[C@@H](CC(N)=O)C(=O)N[C@H]2C(=O)N[C@H]3C(=O)N[C@H](C(=O)N[C@H](C(=O)O)c4cc(O)cc(O)c4-c4cc3ccc4O)[C@H](O)c3ccc(c(Cl)c3)Oc3cc2cc(c3O[C@@H]2O[C@H](CO)[C@@H](O)[C@H](O)[C@H]2O[C@H]2C[C@](C)(N)[C@H](O)[C@H](C)O2)Oc2ccc(cc2Cl)[C@H]1O` [VANCOMYCIN] has a fCmin [1] of 16 mg/L, a fAUC/MIC [2] of 992 and a CFU/ml [3] of 2. The fCmin [4] was 22 mg/L, the fCmin [5] was 7 mg/L and the fAUC/MIC [6] was 317. The fCmin [7] was 12 mg/L, the CFU/ml [8] was 2 and the fAUC/MIC [9] was 2576. It also gave a fAUC/MIC [10] of 105, a fAUC/MIC [11] of 105 and a fCmin [12] of 12 mg/L. For the same molecule, the fAUC/MIC [13] was 138, the CFU/ml [14] was 3 and the fCmin [15] was 7 mg/L. The CFU/ml [16] was 3, the fAUC/MIC [17] was 168 and the fAUC/MIC [18] was 271. For the same molecule, the fCmin [19] was 26 mg/L, the fAUC/MIC [20] was 1084 and the CFU/ml [21] was 0.5. It also gave a fAUC/MIC [22] of 374, a fCmin [23] of 3 mg/L and a CFU/ml [24] of 2. For the same molecule, the fAUC/MIC [25] was “>=180”, the fAUC/MIC [26] was 799 and the CFU/ml [27] was 3. It also gave a CFU/ml [28] of 0.5, a fCmin [29] of 22 mg/L and a fCmin [30] of 4 mg/L. It also gave a fAUC/MIC [31] of 644, a fCmin [32] of 3 mg/L and a fCmin [33] of 3 mg/L. For the same molecule, the fCmin [34] was 7 mg/L, the fCmin [35] was 3 mg/L and the fCmin [36] was 11 mg/L. For the same molecule, the fCmin [37] was 12 mg/L, the Activity [38] was “Active” and the fCmin [39] was 10 mg/L. For the same molecule, the fAUC/MIC [40] was 269 and the fAUC/MIC [41] was 552.
